Laboratory results published in patent publication US5124253A (Medisense, Inc., priority 1988, dated 1992).
“And” between values parts separate entries of the source, which are not always exact repeats. Equal values may be shown once.

Key:
[1] = cyclic voltammetry of substrate and product; type: physicochemical
Excerpt: Typically, in the test element, the enzyme and the substrate are in separate carbon-based layers. The respective carbon mixtures are applied to a conductive track of a support, for example in the close proximity of a reference electrode mixture connected to a second track. In this way, a miniaturized sensor is produced which is capable of working with a small sample of blood bridging the electrode areas. The mixtures are suitably applied by screen printing. Suitable enzymes and suitable substrates can be determined by routine experimentation. Bovine liver alkaline phosphatase is the preferred enzyme, and p-aminophenyl phosphate is the preferred substrate. Other candidate substrates include, for example naphthyl phosphate, and 4-ferrocenylaminophenyl phosphate. […] Furthermore the electrochemistry of p-aminophenol is in a potential region where there would be minimal interference from endogenous blood components.
Cyclic voltammograms of p-aminophenyl phosphate before and after incubation with alkaline phosphatase are shown in FIGS. 3 and 4, the lower voltammogram corresponding to post-incubation.

[2] = cited from earlier work
[3] = test system: bovine liver alkaline phosphatase; conditions: particularly isozyme from bovine liver; cited from earlier work

Structure (SMILES)	E°' of reversible wave [1]	levels encountered in cases of toxicity [2]	inhibition of alkaline phosphatase isozymes [3]
Nc1ccc(O)cc1 [p-aminophenol]	about -65 mV		
Cn1c(=O)c2[nH]cnc2n(C)c1=O [theophylline]		≤ 60 μg/ml and ≤ 330 μM	very potent inhibitor
